Here are results for one substance from US20220249599A1, “TREATMENT OF IMPLANTS WITH ENGINEERED ANTIMICROBIAL AMPHIPHILIC PEPTIDES” (priority 2018, published 2022).

Like-named read-outs stand apart in the source and are kept apart here. Ends that are not written are not given here.

For the data set the following is noted: rat; for AUCinf / AUClast / Cmax / Extrapolated / MRTlast / T1/2: Mean; for Tmax: individual animals. On the procedure: Male Sprague-Dawley Rats will be received from an approved vendor with a single jugular vein cannula (JVC) and allowed to acclimate to the Test Facility for at least 2 days prior to study start. Animals will be weighed prior to dosing. No fasting will be required.
Intravenous administration will be via 30 minute infusion into a JVC. Following dosing, the catheter will be flushed with ˜0.5 mL saline and tied off to prevent re-access.
Serial blood samples will be collected via jugular vein cannula (JVC) or by another approved method if patency is lost. The final blood samples will be obtained via direct cardiac puncture following inhalation anesthesia.
Blood samples will be collected into K2EDTA tubes and stored on wet ice. Whole blood will be processed to plasma by centrifugation (3500 rpm at 5° C.) within 30 minutes of collection. Plasma samples will be transferred into 96 well plates (matrix tubes) and stored at −80° C. until analysis. Administered doses will be determined gravimetrically.
Prior to extraction, a known concentration of a mass-adjusted internal standard (IS) will be added to assess recovery and allow for quantitation. Purified samples will be further subjected to high-performance liquid chromatography (HPLC) using C18 300 or 130 angstrom columns prior to MS/MS analysis. Multiple charge states will be observed by MS, so MS/MS will be employed to enable multiple reaction monitoring (MRM) analyses to determine the most MRM transitions with the highest signal-to-noise gain. Compound plasma concentrations will be determined by comparing to and compensating with co-purified IS peak intensity and validated calibrated standard curves.
Pharmacokinetic parameters will be calculated using non-compartmental methods as implemented in the Phoenix® WinNonlin® ver. 6.3 comprehensive TK/PK analysis software program (Pharsight Corporation; Mountain View, Calif.) using an IV infusion model. Pharmacokinetic analysis will be conducted using a 30-minute intravenous infusion time. Therefore, 30 minutes will be added to each sample time point postdose to obtain nominal time for TK analysis. Nominal times and dosage levels will be used for all calculations. Values below the lower limit of quantitation (BLQ) will be assigned a value of zero for the pharmacokinetic calculations. Microsoft® Excel® 2013 will be used for receipt of bioanalytical data, minor formatting, including setting BLQ values to “0”, transfer into WinNonlin® for PK analysis, and calculation of the mean when an approximated value will be excluded. All plasma concentration data from all animals will be included in the analysis. Graphical presentations will be performed using Microsoft® Excel® 2013.

Broadly, the Cmax is the peak of the concentration-time curve. As a reminder, the Tmax is the time at which the peak concentration occurs. “RRWVRRVRRVWRRVVRVVRRWVRR-NH2 (C-terminus assumed) [SEQ ID NO: 1]”: for the setting “Group 4 IV infusion 10 mg/kg”, the AUCinf is 80486 ng·h/mL, the AUClast was 80339 ng·h/mL, the Cmax was 67192 ng/mL and the Extrapolated is on record as 0.186%. For the same substance, for the setting “Group 4 IV infusion 10 mg/kg”, the MRTlast came to 1.18 h, the T1/2 came to 4.07 h and the Tmax was 0.5333 h. Also, for the setting “IV infusion 1 mg/kg”, the AUCinf turned out to be 787 ng·h/mL, the AUClast is 757 ng·h/mL, the Cmax was 1271 ng/mL and the Extrapolated is 3.28%. Moreover, under “IV infusion 1 mg/kg”, the MRTlast was determined as 1.67 h, the T1/2 came to 6.16 h and the Tmax came out at 0.5333 h. In addition, under “IV infusion 5 mg/kg”, the AUCinf turned out to be 25791 ng·h/mL, the AUClast was determined as 25683 ng·h/mL, the peak concentration (Cmax) is on record as 30409 ng/mL and the Extrapolated is 0.424%. In addition, where the note is “IV infusion 5 mg/kg”, the MRTlast was 1.03 h, the T1/2 amounted to 5.43 h and the Tmax worked out at 0.5333 h.
